Source: patent US20230381142A1, “ANTILEISHMANIAL COMPOUNDS, COMPOSITIONS AND USE THEREOF” (TRUSTEES OF BOSTON UNIVERSITY, priority 2022, published 2023)
Values after ≈ are worked out from the molar mass of the structure shown.

How the values were obtained:
[1] = test system: L. donovani intracellular amastigotes infecting THP-1 cells; test: High content intracellular amastigote assay in THP-1 cells (Assay Conditions B; CDIPD screen); assay type: cell-based, Leishmania donovani; settings: for L. donovani amastigotes % GI at 10 μM (THP-1 cells): footnote b
Description: (§1) Assay Conditions B: THP-1 cells (human acute monocytic leukemia cell line—ATCC TIB202) were grown in RPMI supplemented with 10% Fetal Bovine Serum (FBS) and 50 μM 2-mercaptoethanol at 37° C. in 5% CO2. THP-1 were seeded in microwell plates at 5×10^5 cells/mL density and treated with 0.1 μM phorbol myristate acetate (PMA, Sigma) at 37° C. for 48 h for differentiation into adherent, non-dividing macrophages. After activation by PMA, cells were washed and incubated with complete RPMI medium containing stationary phase Leishmania promastigotes (L. major: strain LV39; L. donovani, strain 1S/Cl2D) at a 1:15 parasite-cell ratio. Compounds were added and incubated at 37° C. for 72 h. Cells were then washed with phosphate-buffered saline (PBS), fixed for 30 minutes with 4% formaldehyde, rinsed again with PBS, stained for 2 h with 4′,6′-diamidino-2-phenylindole (DAPI 300 nM) and finally washed with PBS. In a collaborative effort to identify new antileishmanial chemotypes with minimal host cell cytotoxicity, compounds from the Boston University Center for Molecular Discovery (BUCMD) screening collection were assessed in a phenotypic, high content primary screen at the University of California's Center for Discovery and Innovation in Parasitic Diseases (CDIPD) for the ability to inhibit growth of L. donovani intracellular amastigotes infecting THP-1 cells. […] Dose-response testing in L. donovani (both intracellular amastigotes and promastigotes) confirmed concentration-dependent growth inhibition of both morphologies of the parasite at low micromolar EC50 values for both compounds (Table 1).

THP-1 cells = test: Host THP-1 cell cytotoxicity in the CDIPD high content screen; assay type: cell-based, human; settings: Homo sapiens, THP-1; 10 μM; footnote b; read-out: THP-1 host cell % growth inhibition at 10 μM
Description: as §1

[2] = test system: L. donovani intracellular amastigotes infecting THP-1 macrophages; test: GSK intramacrophage L. donovani assay (LD AMMAC, inMac; Assay Conditions C); assay type: cell-based; settings: Leishmania donovani, THP-1
How it was run: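 EC50 values come from counting amastigotes per infected THP-1 macrophage (AMMAC). Parallel read-outs give percentage of infected cells per well (INFCELL) and a macrophage-number toxicity EC50 (MAC).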

[3] = test system: L. donovani intracellular amastigotes in B10R cells; test: UCSD L. donovani infection assay (Assay Conditions D); assay type: cell-based; settings: Leishmania donovani; for EC50: average of two biological replicates, read-out: L. donovani EC50 (UCSD assay)
How it was run: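 Compounds, either single-point at 10 μM or 10-point 2-fold series (3 technical, 2 biological replicates), were incubated 72 h at 37° C. with B10R host cells co-seeded with day-7 stationary L. donovani promastigotes (20:1). DAPI-stained nuclei imaging yielded intracellular parasite EC50 and host-cell CC50.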

[4] = Kinetic aqueous solubility by CAD; assay type: physicochemical; settings: aqueous medium, kinetic from dmso stock, high-throughput CAD
Description: Solubility of compounds using ChemiLuminescent Nitrogen Detection (CLND) was measured as described. Solubility of compounds using Charged Aerosol Detection (CAD) was measured as described. Solubility of solid compounds in Fasted Simulated Intestinal Fluid (FaSSIF) was measured as described.

human serum albumin = human serum albumin (Homo sapiens, UniProt P02768); test: Human serum albumin (HSA) binding, chromatographic; assay type: in vitro ADME
Description: The percentage of compound bound to human serum albumin was measured using a chromatographic method as described. Briefly, each compound was assayed on an immobilized HSA column and gradient retention times measured, with chromatographic peak detection by UV. Each retention time was then converted to a % HSA bound value using a calibration set of compounds with a known % HSA binding.

[5] = Property forecast index (PFI = ChromLogD7.4 + aromatic rings); assay type: physicochemical
[6] = UCSD infection assay, host cell cytotoxicity (CC50); assay type: cell-based; settings: host macrophages infected with L. donovani; cytotoxicity against host macrophages

Sequence of human serum albumin (P02768 25-609): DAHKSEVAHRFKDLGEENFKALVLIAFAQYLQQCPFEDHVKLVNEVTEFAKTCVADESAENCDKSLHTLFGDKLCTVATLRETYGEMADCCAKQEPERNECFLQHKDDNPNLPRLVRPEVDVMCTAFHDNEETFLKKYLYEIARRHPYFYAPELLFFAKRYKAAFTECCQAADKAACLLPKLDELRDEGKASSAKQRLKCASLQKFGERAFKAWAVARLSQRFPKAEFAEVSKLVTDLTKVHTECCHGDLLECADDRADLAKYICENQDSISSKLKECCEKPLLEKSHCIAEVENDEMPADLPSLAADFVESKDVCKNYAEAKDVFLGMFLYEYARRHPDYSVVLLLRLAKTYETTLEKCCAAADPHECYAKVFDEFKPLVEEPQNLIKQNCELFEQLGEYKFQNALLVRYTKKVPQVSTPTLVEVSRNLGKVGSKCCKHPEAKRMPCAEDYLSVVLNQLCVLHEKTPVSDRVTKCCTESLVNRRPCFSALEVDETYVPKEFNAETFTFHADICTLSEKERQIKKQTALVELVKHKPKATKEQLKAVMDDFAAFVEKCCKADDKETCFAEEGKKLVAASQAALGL

Structure (SMILES)	L. donovani amastigotes % GI at 10 μM (THP-1 cells) [1]	inhibition at 10 µM (THP-1 cells)	inhibition at 10 µM ([1]; Leishmania donovani, THP-1, read-out: inhibition at 10 μM (initial screening))	IC50 [2]	IC50 [3]	EC50 [3]	solubility [4]	HSA Binding (human serum albumin)	PFI [5]	CC50 at 72 h [6]
CC(C)Cc1n[nH]c2c1C(c1ccccc1)N(c1ccccc1)C2=O (centres unmarked) [CMLD007421]	0.0%	< 10%	–	–	–	–	–	–	–	–
Cc1ccc(C2c3c(CC(C)C)n[nH]c3C(=O)N2c2ccccc2)cc1 (centres unmarked) [CMLD007424]	81.0%	35%	–	–	–	–	–	–	–	–
CC(C)Cc1n[nH]c2c1C(c1ccc(F)cc1)N(c1ccccc1)C2=O (centres unmarked) [CMLD007425]	15.0%	13%	–	–	–	–	–	–	–	–
COc1ccc(N2C(=O)c3[nH]nc(CC(C)C)c3C2c2ccc(C)cc2)cc1 (centres unmarked) [CMLD007430]	0.0%	< 10%	0%	–	–	–	–	–	–	–
CC(C)Cc1n[nH]c2c1C(c1ccccc1Cl)N(c1ccc3c(c1)OCO3)C2=O (centres unmarked) [Compound 67, 5-(benzo[d][1,3]dioxol-5-yl)-4-(2-chlorophenyl)-3-isobutyl-4,5-dihydropyrrolo[3,4-c]pyrazol-6(1H)-one]	–	–	–	500 nM	200 nM	160 nM	35 µM (≈ 14.3 µg/mL)	98.0%	8.7	12200 nM
Cc1cc(F)ccc1C1c2c(CC(C)C)n[nH]c2C(=O)N1c1ccc2c(c1)OCO2 (centres unmarked) [Compound 70, 5-(benzo[d][1,3]dioxol-5-yl)-4-(4-fluoro-2-methylphenyl)-3-isobutyl-4,5-dihydropyrrolo[3,4-c]pyrazol-6(1H)-one]	–	–	–	> 100000 nM	100 nM	100 nM	46 µM (≈ 18.7 µg/mL)	97.6%	8.6	12100 nM
COc1ccc(N2C(=O)c3[nH]nc(CC(C)C)c3C2c2ccccc2OC)cc1F (centres unmarked) [Compound 72, 5-(3-fluoro-4-methoxyphenyl)-3-isobutyl-4-(2-methoxyphenyl)-4,5-dihydropyrrolo[3,4-c]pyrazol-6(1H)-one]	–	–	–	1300 nM	400 nM	380 nM	43 µM (≈ 17.6 µg/mL)	95.9%	8.5	260 nM
COc1ccc(N2C(=O)c3[nH]nc(CC(C)C)c3C2c2ccc(F)cc2C)cc1F (centres unmarked) [Compound 73, 4-(4-fluoro-2-methylphenyl)-5-(3-fluoro-4-methoxyphenyl)-3-isobutyl-4,5-dihydropyrrolo[3,4-c]pyrazol-6(1H)-one]	–	–	–	3200 nM	200 nM	160 nM	35 µM (≈ 14.4 µg/mL)	96.3%	8.8	10900 nM
CC(C)Cc1n[nH]c2c1C(c1ccccc1Br)N(c1ccc(Br)cc1)C2=O (centres unmarked) [Compound 74, 4-(2-bromophenyl)-5-(4-bromophenyl)-3-isobutyl-4,5-dihydropyrrolo[3,4-c]pyrazol-6(1H)-one]	–	–	–	10000 nM	400 nM	390 nM	< 1 µM	98.0%	10.4	4980 nM
COc1ccccc1C1c2c(CC(C)C)n[nH]c2C(=O)N1c1ccc(Br)cc1 (centres unmarked) [Compound 75, 5-(4-bromophenyl)-3-isobutyl-4-(2-methoxyphenyl)-4,5-dihydropyrrolo[3,4-c]pyrazol-6(1H)-one]	–	–	–	500 nM	200 nM	240 nM	< 1 µM	97.5%	9.6	1140 nM
Cc1cc(F)ccc1C1c2c(CC(C)C)n[nH]c2C(=O)N1c1ccc(Br)cc1 (centres unmarked) [Compound 76, 5-(4-bromophenyl)-4-(4-fluoro-2-methylphenyl)-3-isobutyl-4,5-dihydropyrrolo[3,4-c]pyrazol-6(1H)-one]	–	–	–	600 nM	100 nM	120 nM	< 1 µM	97.7%	9.8	3040 nM
COc1cc(F)ccc1C1c2c(CC(C)C)n[nH]c2C(=O)N1c1ccc(Br)cc1 (centres unmarked) [Compound 77, 5-(4-bromophenyl)-4-(4-fluoro-2-methoxyphenyl)-3-isobutyl-4,5-dihydropyrrolo[3,4-c]pyrazol-6(1H)-one]	–	–	–	100 nM	100 nM	120 nM	< 1 µM	98.5%	9.7	4040 nM
CC(C)Cc1n[nH]c2c1C(c1ccccc1Cl)N(c1ccc(N(C)C)cc1)C2=O (centres unmarked) [Compound 78, 4-(2-chlorophenyl)-5-(4-(dimethylamino)phenyl)-3-isobutyl-4,5-dihydropyrrolo[3,4-c]pyrazol-6(1H)-one]	–	–	–	800 nM	300 nM	260 nM	21 µM (≈ 8.59 µg/mL)	96.7%	9.4	7320 nM
COc1ccccc1C1c2c(CC(C)C)n[nH]c2C(=O)N1c1ccc(N(C)C)cc1 (centres unmarked) [Compound 80, 5-(4-(dimethylamino)phenyl)-3-isobutyl-4-(2-methoxyphenyl)-4,5-dihydropyrrolo[3,4-c]pyrazol-6(1H)-one]	–	–	–	200 nM	100 nM	70 nM	66 µM (≈ 26.7 µg/mL)	95.7%	8.6	3450 nM
Cc1cc(F)ccc1C1c2c(CC(C)C)n[nH]c2C(=O)N1c1ccc(N(C)C)cc1 (centres unmarked) [Compound 81, 5-(4-(dimethylamino)phenyl)-4-(4-fluoro-2-methylphenyl)-3-isobutyl-4,5-dihydropyrrolo[3,4-c]pyrazol-6(1H)-one]	–	–	–	100 nM	100 nM	110 nM	27 µM (≈ 11 µg/mL)	96.5%	9.1	7510 nM
COc1cc(F)ccc1C1c2c(CC(C)C)n[nH]c2C(=O)N1c1ccc(N(C)C)cc1 (centres unmarked) [Compound 82, 5-(4-(dimethylamino)phenyl)-4-(4-fluoro-2-methoxyphenyl)-3-isobutyl-4,5-dihydropyrrolo[3,4-c]pyrazol-6(1H)-one]	–	–	–	4000 nM	–	40 nM	45 µM (≈ 19 µg/mL)	97.1%	8.8	8500 nM
